{"source": "patent US20120021434A1", "about": "“METHOD FOR TREATING B CELL REGULATED AUTOIMMUNE DISORDERS” (Synta Pharmaceuticals Corp., priority 2005, published 2012)", "type_in_all_cases": "cell-based", "key": {"p65": {"tested_on": "p65", "experiment": "LPS/IFNγ-induced phosphorylation of p65 in THP1 cells (immunoblot)", "details": "THP1, 100 nM, residues Ser-276, Ser-468 and Ser-927", "protocol": "(§1) In this study, we examined the effect of Compound 50 on LPS-induced phosphorylation of the NF-κB members p65 and p105/p50. THP1 monocytic cells were stimulated with IFNγ plus LPS in the presence or absence of 100 nM Compound 50 (30 min, 1 h and 3 h) and whole-cell extracts were immunoblotted using anti-phospho p65 and p105/p50 antibodies to detect the phosphorylated forms of these proteins. […] LPS/IFNγ induced phosphorylation of p65 as early as 30 minutes on residues Ser-276, Ser-468 and […]. Compound 50 had no effect on LPS/IFNγ induced phosphorylation at these sites. […] LPS/IFNγ induced phosphorylation of p105 as early as 30 minutes on residues Ser-927 and Ser-933. Compound 50 had no effect on LPS/IFNγ induced phosphorylation at these sites."}, "ICSBP": {"tested_on": "ICSBP", "experiment": "ICSBP expression (Western blot)", "protocol": "The 10% SDS Polyacrylamide gels (Inveitrogen) were transferred to Pure Nitrocellulose membrane (BioRed, Hercules, Calif.). The membranes were blocked with 5% milk in TBST buffer and incubated with anti-c-Rel, anti-p65, anti-p50, anti-ICSBP or anti-PU-1 antibody (all the antibodies were purchased from Santa Cruz) at a dilution of 1:500 for 1 h at room temperature or overnight at 4C. The membranes were washed and incubated with Horseradish Peroxidase-conjugated anti-rabbit IgG or anti-mouse IgG (Amersham, England) at a dilution of 1:2000 at room temperature for 1 h.\nOf the transcription factors that have been analyzed, two factors, ICSBP and c-Rel, seem to be affected by Compound 4/Compound 50 treatment. ICSBP binds indirectly to the Ets-2 site. The primary NF-κB trans-activator for IL-12 is the c-Rel/p50 heterodimer. Other dimers (p65/p50 and p50/p50) either lack activity or have inhibitory functions. Thus, c-Rel plays a role in IL-12 transcription as a result of both activation through NF-κB and its interaction with ICSBP. […] The membranes were blocked with 5% milk in TBST buffer and then incubated with anti-c-Rel, anti-p65, anti-p50, anti-ICSBP or anti-PU-1 antibody (all the antibodies were purchased from Santa Cruz) at a dilution of 1:500 for 1 h at room temperature or overnight at 4° C. The membranes were washed and incubated with Horseradish Peroxidase-conjugated anti-rabbit IgG or anti-mouse IgG (Amersham, England) at a dilution of 1:2000 at room temperature for 1 h.\nICSBP, whose expression was reduced by Compound 50, was over-expressed using co-transfection with the IL-12 promoter-Luc report system. The over-expression construct of ICSBP was generated by PCR from cDNA of human PBMC using primers as follow: ICSBP-exp-F: 5′-[…]-3′ (SEQ ID NO:1) and ICSBP-exp-R: 5′-[…]-3′ (SEQ ID NO:2), the resulting PCR products was ligated to pCI vector (Promega)."}, "p105/p50": {"tested_on": "p105/p50", "experiment": "LPS/IFNγ-induced phosphorylation of p105/p50 in THP1 cells (immunoblot)", "details": "THP1, 100 nM, residues Ser-927 and Ser-933", "protocol": "as §1"}, "p52": {"tested_on": "p52", "experiment": "p52 nuclear translocation in IFNγ+LPS-stimulated THP1 cells (immunoblot)", "details": "100 nM, 6 h", "protocol": "(§2) RelB and p52 are two members of Rel family, which are preferentially complexed with each other. To determine the effect of Compound 50 on p52 and Rel-B nuclear translocation, THP1 cells were stimulated with IFNγ+LPS in either the presence or absence of 100 nM Compound 50 and the distribution of p52 and Rel-B was determined by immunoblotting of nuclear at 6 h post-treatment."}, "Rel-B": {"tested_on": "Rel-B", "experiment": "Rel-B nuclear translocation in IFNγ+LPS-stimulated THP1 cells (immunoblot)", "details": "100 nM, 6 h", "protocol": "as §2"}, "NF-κB p65": {"tested_on": "NF-κB p65", "experiment": "Immunofluorescence of p65 nuclear accumulation in LPS-stimulated RAW264.7 cells", "details": "RAW264.7, LPS 5 μg/mL, 100 nM, 4 hours", "protocol": "We next examined whether compound 50 can block the accumulation of c-Rel in the nucleus of cells induced by LPS (FIG. 2). RAW264.7 cells cultured in DMEM with 10% BCS were split and seeded into 4-well chambered slides at 80,000 cells/well density. The cells were then treated with DMSO, Compound 50 (100 nM), LPS (Sigma, 5 μg/mL), LPS (5 μg/mL)+Compound 50 (100 nM) for 4 hours and fixed with 3% paraformaldehyde solution (1×PBS) after 1× quick rinse with 1×PBS. Fixed cells were permeablized with 0.2% TX100 and immunostained with anti-cRel antibody (SC70, Santa Cruz, 1:200 dilution) or anti-NF-κB p65 antibody (SC109, Santa Cruz, 1:100 dilution), and subsequently stained with Alexa Fluor 488 Goat-anti-Rabbit secondary antibody and DAPI (Molecular Probes, 1.1 μM). Images were obtained with CoolSNAP monochrome CCD camera on a Nikon inverted microscope TE300 using identical imaging parameters and were processed identically with Photoshop CS software. As observed previously, c-Rel localized to the cytoplasm in DMSO-treated cells and to the nucleus in LPS-treated cells. […] We also examined whether Compound 50 blocks the nuclear accumulation of another NF-κB/Rel family member, p65, in LPS-stimulated RAW cells (FIG. 3). As observed for c-Rel, p65 was localized to the cytoplasm in DMSO and Compound 50-treated cells and to the nucleus in LPS-stimulated cells. […]"}}, "data": [{"smiles": "Cc1cccc(/C=N/Nc2cc(N3CCOCC3)nc(OCCc3ccccn3)n2)c1", "note": "[Compound 50, N-(3-Methyl-benzylidene)-N′-[6-morpholin-4-yl-2-(2-pyridin-2-yl-ethoxy)-pyrimidin-4-yl]-hydrazine]", "values": [{"measurement": "LPS/IFNγ induced phosphorylation of p65", "setting": "p65", "value": "no effect"}, {"measurement": "ICSBP expression", "setting": "ICSBP", "value": "reduced"}, {"measurement": "transcription factor ICSBP affected by treatment", "setting": "ICSBP; of the transcription factors analyzed", "value": "affected"}, {"measurement": "LPS/IFNγ induced phosphorylation of p105", "setting": "p105/p50", "value": "no effect"}, {"measurement": "nuclear p52", "setting": "p52", "value": "No significant difference"}, {"measurement": "nuclear Rel-B", "setting": "Rel-B", "value": "slightly increased"}, {"measurement": "LPS-induced p65 nuclear accumulation", "setting": "NF-κB p65", "value": "not blocked"}]}]}
